We go through 1 compound from patent US20140084216A1 (Merck Patent GmbH, priority 2011, published 2014).

The compound `C=CC(=O)OCCN(CCOC(=O)C=C)c1ccc(N=Nc2snc(C)c2C#N)c(NC(C)=O)c1` [Example 5, Acrylic acid 2-[{3-acetylamino-4-(4-cyano-3-methylisothiazol-5-ylazo)-phenyl}-{2-acryloyloxyethyl}-amino]-ethyl ester] registered a melting point of 92 to 94 °C.
